Reference: patent US6403605B1, “Methods for the normalization of sexual response and amelioration of long term genital tissue degradation” (Queen's University at Kingston, priority 1998, dated 2002)

Assays:
[1] = tested on: patients diagnosed with male erectile dysfunction with no major organic component; assay: Multi-center, double-blind, randomized, placebo-controlled study: duration of erection and time to erection; format: in vivo, human; conditions: for Duration of Erection, Difference in Means: all attempts; for Time to Erection, Kaplan-Meier Median: all attempts (60 minutes if no erection); for Time to Erection, Kaplan-Meier Estimation of Median Time to Erection (Treatment Means): attempts when erection occurred, first eight attempts
Procedure: A multi-center, double-blind, randomized, placebo-controlled, three-armed study was conducted on 370 patients diagnosed with male erectile dysfunction with no major organic component. For each sequence, patients received placebo in one of the treatment periods, and a dose (2 mg, 4 mg, or 6 mg) of apomorphine in the other treatment period.
During treatment periods of the study, patients and their sexual partners were instructed to attempt intercourse a minimum of twice weekly. Each time the study drug was taken, a questionnaire was completed by the patient and by the partner and mailed to the study sponsor. The questionnaire recorded the date and time the study drug was taken, an evaluation of the erection, whether or not sexual intercourse had occurred, and satisfaction associated with each attempt. The patient also completed a diary which recorded the latency and duration of erections associated with the use of the study drug and antiemetic and concomitant medication usage and any adverse effects. If an erection occurred after administration to the patient of the study drug, the duration of erection and time-to-erection were recorded in the patient diary.
The data in Table 2 also indicate a dose-dependent, statistically significant difference of duration of erection, with a difference of almost 5 minutes between patients taking the 6 mg dose and those receiving placebo.
In those cases where no erection was achieved, a value of 60 minutes time-to-erection was used in the statistical analysis. The data in Table 3 show differences in latency periods between patients receiving apomorphine and those receiving placebo, but the differences probably reflect the inclusion in the data of 60 minute values for those cases in which no erection was achieved.

female rats = assay: Studies with female rats: sexual arousal behaviors; format: in vivo, rat; conditions: female rats treated with combination of apomorphine and low doses of testosterone
Source text: When co-administration of an androgen is utilized in this method of the invention, the androgen is given is doses sufficient to produce plasma concentrations of about 1 nmol/L to 200 nmol/L.

[2] = Pharmacokinetic evaluation of apomorphine (FIG. 1, mean plasma concentrations after sub-cutaneous and sublingual doses)

fraction of maximum blood serum levels reached ([2]; 12 minutes following buccal administration): one-fifth to one-fourth
plasma apomorphine levels sufficient to cause a therapeutic effect ([2]; interpolation of plasma curves for 2, 4, 6 mg up to about 20 minutes after administration): less than 0.25 ng/mL
time to maximum plasma concentrations ([2]; sub-lingual administration (formulation used in Tables 1-4)): about 60 minutes
Structure (SMILES): CN1CCc2cccc3c2[C@H]1Cc1ccc(O)c(O)c1-3 [Apomorphine, (R)-5,6,6a,7-tetrahydro-6-methyl-(4H)-dibenzo[de,g]quinoline-10,11-diol]
Duration of Erection, Difference in Means ([1]; 2 mg apomorphine vs placebo): 1.936 min
Duration of Erection, Difference in Mean ([1]; 2 mg apomorphine vs placebo, only attempts where erection was achieved): 1.811 min
Duration of Erection, Mean ([1]; 2 mg apomorphine, sublingual, all attempts (zero minutes if no erection)): 5.020 min
Time to Erection, Kaplan-Meier Median ([1]; 2 mg apomorphine): 42.17 min
Time to Erection, Kaplan-Meier Estimation of Median Time to Erection (Treatment Means) ([1]; 2 mg apomorphine): 11.33 min
Duration of Erection, Mean ([1]; 2 mg apomorphine, only attempts where erection was achieved): 10.82 min
Duration of Erection, Difference in Means ([1]; 4 mg apomorphine vs placebo): 3.578 min
Duration of Erection, Difference in Mean ([1]; 4 mg apomorphine vs placebo, only attempts where erection was achieved): 3.458 min
Duration of Erection, Mean ([1]; 4 mg apomorphine, sublingual, all attempts (zero minutes if no erection)): 6.903 min
Time to Erection, Kaplan-Meier Median ([1]; 4 mg apomorphine): 36.00 min
Time to Erection, Kaplan-Meier Estimation of Median Time to Erection (Treatment Means) ([1]; 4 mg apomorphine): 12.61 min
Duration of Erection, Mean ([1]; 4 mg apomorphine, only attempts where erection was achieved): 12.49 min
Duration of Erection, Difference in Means ([1]; 6 mg apomorphine vs placebo): 5.138 min
Duration of Erection, Difference in Mean ([1]; 6 mg apomorphine vs placebo, only attempts where erection was achieved): 4.925 min
Duration of Erection, Difference in Mean ([1]; 6 mg apomorphine vs placebo, only attempts where erection was achieved, listed as apomorphine): ~5 min
Duration of Erection, Mean ([1]; 6 mg apomorphine, sublingual, all attempts (zero minutes if no erection)): 8.393 min
Time to Erection, Kaplan-Meier Median ([1]; 6 mg apomorphine): 31.33 min
Time to Erection, Kaplan-Meier Estimation of Median Time to Erection (Treatment Means) ([1]; 6 mg apomorphine): 12.82 min
Duration of Erection, Mean ([1]; 6 mg apomorphine, only attempts where erection was achieved): 13.96 min
difference in median time-to-erection between drug and placebo ([1]; attempts successful in achieving an erection): no statistically significant difference
effect on duration of erection compared to placebo ([1]; doses tested (2, 4, 6 mg)): significant increase in the duration of erection
behaviors associated with sexual arousal (female rats): exhibited lordosis, genital grooming and other behaviors typically associated with sexual arousal
